Experimental data from the supplement of paper PMC11061612.

Experiments:
Assay in all cases: combination Emax (second highest fraction inhibited in the dose matrix, 72 h); higher = more inhibition; extreme values may be limits of the assay
[1] = tested on: RC-K8 (B-Cell Non-Hodgkin's Lymphoma)
In short: (§1)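 Bliss excess equals the observed combination effect minus the expected value EA + EB − EA·EB, where EA and EB are the effects of each agent alone. Combination Emax is the second-highest inhibition within the matrix. Inhibition was scaled from CellTiter-Glo 2.0 luminescence, with 0 set by vehicle wells and 1 by blank wells, after 72 hours of two-drug dosing of cells plated in 1536-well plates.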

[2] = tested on: CCRF-CEM (T-Lymphoblastic Leukemia)
In short: as §1

[3] = tested on: HCC1806 (Breast Carcinoma)
In short: as §1

[4] = tested on: TCCSUP (Bladder Carcinoma)
In short: as §1

[5] = tested on: ME-1 (Acute Myeloid Leukemia)
In short: as §1

[6] = tested on: HCC-78 (Lung Adenocarcinoma)
In short: as §1

[7] = tested on: DoTc2-4510 (Cervical Carcinoma)
In short: as §1

[8] = tested on: KP-1N (Pancreatic Carcinoma)
In short: as §1

NB10 (Neuroblastoma) = tested on: NB10 (Neuroblastoma)
In short: as §1

[9] = tested on: LU-135 (Small Cell Lung Carcinoma)
In short: as §1

42-MG-BA (Glioblastoma) = tested on: 42-MG-BA (Glioblastoma)
In short: as §1

[10] = tested on: TE-15 (Esophageal Squamous Cell Carcinoma)
In short: as §1

T98G (Glioblastoma) = tested on: T98G (Glioblastoma)
In short: as §1

[11] = tested on: Daoy (Other Solid Carcinomas)
In short: as §1

[12] = tested on: COLO-205 (Colorectal Carcinoma)
In short: as §1

ES4 (Ewing's Sarcoma) = tested on: ES4 (Ewing's Sarcoma)
In short: as §1

[13] = tested on: Ramos-2G6-4C10 (Burkitt's Lymphoma)
In short: as §1

[14] = tested on: TE-9 (Esophageal Squamous Cell Carcinoma)
In short: as §1

[15] = tested on: Calu-3 (Lung Adenocarcinoma)
In short: as §1

[16] = tested on: NCI-H2085 (Non-Small Cell Lung Carcinoma)
In short: as §1

NC1(C(=O)N[C@@H](CCO)c2ccc(Cl)cc2)CCN(c2ncnc3[nH]ccc23)CC1 [Capivasertib] + CC(=O)c1c(C)c2cnc(Nc3ccc(N4CCNCC4)cn3)nc2n(C2CCCC2)c1=O [Palbociclib] (first compound max 10 µM, 7x7, partner max 10 µM)
combination Emax [1]: 0.435 | combination Emax [2]: 0.798 | combination Emax [3]: 0.516 | combination Emax [4]: 0.317 | combination Emax [5]: 0.257 | combination Emax [6]: 0.344 | combination Emax [7]: 0.181 | combination Emax [8]: 0.451 | combination Emax (NB10 (Neuroblastoma)): 0.369 | combination Emax [9]: 0.452 | combination Emax (42-MG-BA (Glioblastoma)): 0.639 | combination Emax [10]: 0.568 | combination Emax (T98G (Glioblastoma)): 0.6 | combination Emax [11]: 0.397 | combination Emax [12]: 0.587 | combination Emax (ES4 (Ewing's Sarcoma)): 0.412 | combination Emax [13]: 0.42 | combination Emax [14]: 0.227 | combination Emax [15]: 0.396 | combination Emax [16]: 0.295

NC1(C(=O)N[C@@H](CCO)c2ccc(Cl)cc2)CCN(c2ncnc3[nH]ccc23)CC1 [Capivasertib] + CC(C)n1c(=O)n(C)c2cnc3cc(F)c(-c4ccc(OCCCN5CCCCC5)nc4)cc3c21 [AZD1390] (first compound max 10 µM, 7x7, partner max 0.3 µM)
combination Emax [1]: 0.224 | combination Emax [2]: 0.457 | combination Emax [3]: 0.267 | combination Emax [4]: 0.321 | combination Emax [5]: 0.237 | combination Emax [6]: 0.259 | combination Emax [7]: 0.234 | combination Emax [8]: 0.254 | combination Emax (NB10 (Neuroblastoma)): 0.221 | combination Emax [9]: 0.267 | combination Emax (42-MG-BA (Glioblastoma)): 0.686 | combination Emax [10]: 0.387 | combination Emax (T98G (Glioblastoma)): 0.449 | combination Emax [11]: 0.33 | combination Emax [12]: 0.416 | combination Emax (ES4 (Ewing's Sarcoma)): 0.277 | combination Emax [13]: 0.447 | combination Emax [14]: 0.17 | combination Emax [15]: 0.288 | combination Emax [16]: 0.258

NC1(C(=O)N[C@@H](CCO)c2ccc(Cl)cc2)CCN(c2ncnc3[nH]ccc23)CC1 [Capivasertib] + CCN(CCO)CCCOc1ccc2c(Nc3cc(CC(=O)Nc4cccc(F)c4)[nH]n3)ncnc2c1 [AZD2811] (first compound max 10 µM, 7x7, partner max 1 µM)
combination Emax [1]: 0.53 | combination Emax [2]: 1 | combination Emax [3]: 0.378 | combination Emax [4]: 0.389 | combination Emax [5]: 0.199 | combination Emax [6]: 0.349 | combination Emax [7]: 0.279 | combination Emax [8]: 0.288 | combination Emax (NB10 (Neuroblastoma)): 0.452 | combination Emax [9]: 0.932 | combination Emax (42-MG-BA (Glioblastoma)): 0.782 | combination Emax [10]: 0.449 | combination Emax (T98G (Glioblastoma)): 0.437 | combination Emax [11]: 0.501 | combination Emax [12]: 0.831 | combination Emax (ES4 (Ewing's Sarcoma)): 0.422 | combination Emax [13]: 0.807 | combination Emax [14]: 0.267 | combination Emax [15]: 0.358 | combination Emax [16]: 0.436

NC1(C(=O)N[C@@H](CCO)c2ccc(Cl)cc2)CCN(c2ncnc3[nH]ccc23)CC1 [Capivasertib] + COc1nnc2ccc(N3CCC(c4ccc(OCCN5CCN(C)C(=O)[C@H]5C)cc4)CC3)nn12 [AZD5153] (first compound max 10 µM, 7x7, partner max 1 µM)
combination Emax [1]: 0.761 | combination Emax [2]: 0.905 | combination Emax [3]: 0.556 | combination Emax [4]: 0.35 | combination Emax [5]: 0.402 | combination Emax [6]: 0.389 | combination Emax [7]: 0.317 | combination Emax [8]: 0.621 | combination Emax (NB10 (Neuroblastoma)): 0.527 | combination Emax [9]: 0.969 | combination Emax (42-MG-BA (Glioblastoma)): 0.813 | combination Emax [10]: 0.693 | combination Emax (T98G (Glioblastoma)): 0.699 | combination Emax [11]: 0.676 | combination Emax [12]: 0.808 | combination Emax (ES4 (Ewing's Sarcoma)): 0.624 | combination Emax [13]: 0.997 | combination Emax [14]: 0.354 | combination Emax [15]: 0.749 | combination Emax [16]: 0.6

NC1(C(=O)N[C@@H](CCO)c2ccc(Cl)cc2)CCN(c2ncnc3[nH]ccc23)CC1 [Capivasertib] + C[C@@H]1COCCN1C2=NC(=NC(=C2)C3(CC3)[S@](=N)(=O)C)C4=C5C=CNC5=NC=C4 [AZD6738] (first compound max 10 µM, 7x7, partner max 10 µM)
combination Emax [1]: 0.775 | combination Emax [2]: 0.983 | combination Emax [3]: 0.947 | combination Emax [4]: 0.685 | combination Emax [5]: 0.277 | combination Emax [6]: 0.721 | combination Emax [7]: 0.45 | combination Emax [8]: 0.323 | combination Emax (NB10 (Neuroblastoma)): 0.811 | combination Emax [9]: 0.793 | combination Emax (42-MG-BA (Glioblastoma)): 0.775 | combination Emax [10]: 0.879 | combination Emax (T98G (Glioblastoma)): 0.867 | combination Emax [11]: 0.901 | combination Emax [12]: 0.637 | combination Emax (ES4 (Ewing's Sarcoma)): 0.851 | combination Emax [13]: 0.922 | combination Emax [14]: 0.232 | combination Emax [15]: 0.512 | combination Emax [16]: 0.504

NC1(C(=O)N[C@@H](CCO)c2ccc(Cl)cc2)CCN(c2ncnc3[nH]ccc23)CC1 [Capivasertib] + Cn1cnc2c(F)c(Nc3ccc(Br)cc3Cl)c(C(=O)NOCCO)cc21 [Selumetinib] (first compound max 10 µM, 7x7, partner max 10 µM)
combination Emax [1]: 0.367 | combination Emax [2]: 0.485 | combination Emax [3]: 0.595 | combination Emax [4]: 0.373 | combination Emax [5]: 0.342 | combination Emax [6]: 0.295 | combination Emax [7]: 0.408 | combination Emax [8]: 0.393 | combination Emax (NB10 (Neuroblastoma)): 0.428 | combination Emax [9]: 0.352 | combination Emax (42-MG-BA (Glioblastoma)): 0.737 | combination Emax [10]: 0.633 | combination Emax (T98G (Glioblastoma)): 0.49 | combination Emax [11]: 0.472 | combination Emax [12]: 0.778 | combination Emax (ES4 (Ewing's Sarcoma)): 0.398 | combination Emax [13]: 0.435 | combination Emax [14]: 0.398 | combination Emax [15]: 0.461 | combination Emax [16]: 0.427
